Source: patent US12636290B2, “BET inhibitors for modulating DUX4 expression in FSHD” (Saint Louis University, priority 2018, dated 2026)
Structures can show the parent of a compound that is named as a salt. Where two headings read alike, the source gives them in different places.

System: DUX4 expression (surrogate marker MBD3L2)
Test: Screening: qPCR analysis of DUX4 target gene MBD3L2 in differentiating MB200 FSHD2 muscle cells
Format: cell-based
Conditions: Homo sapiens, 40 hours, DUX4 expression inferred from surrogate marker MBD3L2 expression (qPCR, normalized to RPL30)
Method: Cells and Cell Culture. Primary human myoblast cell lines, immortalized by retroviral transduction of cyclin-dependent kinase 4 (CDK4) and human telomerase reverse transcriptase (hTERT) (Stadler, et al., 2011), were obtained from the Fields Center at the University of Rochester (world-wide-web at urmc.rochester.edu/fields-center.aspx). Immortalized myoblasts were grown in Ham's F-10 Nutrient Mix (Gibco, Waltham, MA, USA) supplemented with 20% HyClone Fetal Bovine Serum (GE Healthcare Life Sciences, Pittsburgh, PA, USA), 100 U/100 μg penicillin/streptomycin (Gibco), 10 ng/ml recombinant human fibroblast growth factor (Promega Corporation, Madison, WI, USA) and 1 μM dexamethasone (Sigma-Aldrich). Differentiation of myoblasts into myotubes was achieved by switching the fully confluent myoblast monolayer into Dulbecco's Modified Eagle Medium (DMEM) (Gibco) containing 1% horse serum (Gibco), 100 U/100 μg penicillin/streptomycin, 10 μg/ml insulin (Sigma-Aldrich) and 10 μg/ml transferrin (Sigma-Aldrich) (HS/IT media) or DMEM:F12 Nutrient Mixture (1:1, Gibco) supplemented with 2% KnockOut Serum Replacement (Gibco), 100 U/100 μg penicillin/streptomycin, 10 μg/ml insulin and 10 μg/ml transferrin (KSR media) for 2-6 days.
Screening: qPCR analysis of DUX4 target genes MBD3L2. For screening compounds, differentiating MB200 FSHD2 muscle cells were exposed to BET inhibitors at a variety of concentrations for 40 hours to determine the effects of the drugs on DUX4 expression. Cell lysates were prepared using Cells-to-Ct Bulk Lysis Reagents (Invitrogen, Waltham, MA, USA). Gene expression was measured by quantitative polymerase chain reaction (qPCR) was carried out on a QuantStudio 5 (Applied Biosystems, Waltham, MA, USA) using TaqMan Gene Expression Assays (Applied Biosystems) and TaqMan Fast Virus 1-Step Master Mix (Invitrogen). The relative expression levels of DUX4 target gene methyl-CpG binding domain protein 3 like 2 (MBD3L2), was normalized to that of the reference gene ribosomal protein L30 (RPL30), which was included in multiplex (two gene) PCR reactions. TaqMan Gene Expression Assay ID numbers: MBD3L2, Hs00544743_m1; RPL30, Hs00265497_m1. Data is expressed as relative expression with the expression in absence of inhibitors set to one.
Analysis of MBD3L2 expression in cultured FSHD2 cells. DUX4 mRNA is present in very low levels, even in differentiating FSHD2 myoblasts, so DUX4 target gene MBD3L2 was used as a surrogate marker of DUX4 expression. FSHD2 patient derived muscle cells were analyzed to determine whether BET inhibitors affect MBD3L2 expression, indicating a reduction in DUX4 expression.

`Cn1cc(-c2ccc(N3CCC4(CCNCC4)CC3)nc2)c2cc[nH]c2c1=O` [SLU-2130, 4-[6-(3,9-diazaspiro[5.5]undecan-3-yl)pyridin-3-yl]-6-methyl-1H-pyrrolo[2,3-c]pyridin-7(6H)-one·hydrochloride] was tested, and the IC50 (read-out: DUX4* MT FSHD2: IC50) was 120 nM and the IC50 (read-out: DUX4* MT FSHD2 IC50) was 120 nM.
Compound `CN1CCN(CCOc2ccc(C3CCN(c4ccc(-c5cn(C)c(=O)c6[nH]ccc56)cn4)CC3)cc2)CC1=O` [SLU-2131, 6-methyl-4-{6-[4-(4-(2-(4-methyl-3-oxopiperazin-1-yl)ethoxy)phenyl)piperidin-1-yl]pyridin-3-yl}-1H-pyrrolo[2,3-c]pyridin-7(6H)-one] has an IC50 (read-out: DUX4* MT FSHD2: IC50) of 62 nM and an IC50 (read-out: DUX4* MT FSHD2 IC50) of 62 nM.
For `C[C@@H]1C(=O)N(C)CCN1CCOc1ccc2nc(-c3ccc(-c4cn(C)c(=O)c5[nH]ccc45)cc3)ccc2c1` [SLU-2211, (R)-4-{4-[6-(2-(2,4-dimethyl-3-oxopiperazin-1-yl)ethoxy)quinolin-2-yl]phenyl}-6-methyl-1H-pyrrolo[2,3-c]pyridin-7(6H)-one], the IC50 (read-out: DUX4* MT FSHD2: IC50) was 62 nM and the IC50 (read-out: DUX4* MT FSHD2 IC50) was 62 nM.
Work on `C[C@@H]1C(=O)N(C)CCN1CCOc1ccc(C2CCN(c3ccc(-c4cn(C)c(=O)c5[nH]ccc45)cc3)CC2)cc1` [SLU-2212, (R)-4-{4-[4-(4-(2-(2,4-dimethyl-3-oxopiperazin-1-yl)ethoxy)phenyl)piperidin-1-yl]phenyl}-6-methyl-1H-pyrrolo[2,3-c]pyridin-7(6H)-one] yielded an IC50 (read-out: DUX4* MT FSHD2: IC50) of 86 nM and an IC50 (read-out: DUX4* MT FSHD2 IC50) of 86 nM.
`C[C@@H]1C(=O)N(C)CCN1CCOc1ccc(-c2ccc3nc(-c4cn(C)c(=O)c5[nH]ccc45)ccc3c2)nc1` [SLU-2213] gave an IC50 (read-out: DUX4* MT FSHD2: IC50) of 41 nM and an IC50 (read-out: DUX4* MT FSHD2 IC50) of 41 nM.
`Cn1cc(-c2ccc(N3CCC4(CCNCC4)C3)nc2)c2cc[nH]c2c1=O` [SLU-2214, 4-[6-(2,8-diazaspiro[4.5]decan-2-yl)pyridin-3-yl]-6-methyl-1H-pyrrolo[2,3-c]pyridin-7(6H)-one] gave an IC50 (read-out: DUX4* MT FSHD2: IC50) of 95 nM and an IC50 (read-out: DUX4* MT FSHD2 IC50) of 95 nM.
With `C[C@@H]1C(=O)N(C)CCN1CCOc1ccc(-c2cc3ccc(-c4cn(C)c(=O)c5[nH]ccc45)cc3cn2)cc1` [SLU-2217, (R)-4-{3-[4-(2-(2,4-dimethyl-3-oxopiperazin-1-yl)ethoxy)phenyl]isoquinolin-7-yl}-6-methyl-1H-pyrrolo[2,3-c]pyridin-7(6H)-one] the IC50 (read-out: DUX4* MT FSHD2: IC50) was 22 nM and the IC50 (read-out: DUX4* MT FSHD2 IC50) was 22 nM.
Compound `Cn1cc(-c2ccc(N3CCC4(CCN(C(=O)CO)CC4)C3)nc2)c2cc[nH]c2c1=O` [SLU-2218, 4-{6-[8-(2-hydroxyacetyl)-2,8-diazaspiro[4.5]decan-2-yl]pyridin-3-yl}-6-methyl-1H-pyrrolo[2,3-c]pyridin-7(6H)-one] has an IC50 (read-out: DUX4* MT FSHD2: IC50) of 41 nM and an IC50 (read-out: DUX4* MT FSHD2 IC50) of 41 nM.
`C[C@@H]1C(=O)N(C)CCN1CCOc1ccc(-c2ccc3cc(-c4cn(C)c(=O)c5[nH]ccc45)ncc3c2)cc1` [SLU-2219, (R)-4-{7-[4-(2-(2,4-dimethyl-3-oxopiperazin-1-yl)ethoxy)phenyl]isoquinolin-3-yl}-6-methyl-1H-pyrrolo[2,3-c]pyridin-7(6H)-one] gave an IC50 (read-out: DUX4* MT FSHD2: IC50) of 95 nM and an IC50 (read-out: DUX4* MT FSHD2 IC50) of 95 nM.
In the case of `C[C@@H]1C(=O)N(C)CCN1CCOCC(=O)N1CCC2(CC1)CCN(c1ccc(-c3cn(C)c(=O)c4[nH]ccc34)cn1)CC2` [SLU-2225, (R)-4-{6-[9-(2-(2-(2,4-dimethyl-3-oxopiperazin-1-yl)ethoxy)acetyl)-3,9-diazaspiro[5.5]undecan-3-yl]pyridin-3-yl}-6-methyl-1H-pyrrolo[2,3-c]pyridin-7(6H)-one], the IC50 (read-out: DUX4* MT FSHD2: IC50) is reported as 35 nM and the IC50 (read-out: DUX4* MT FSHD2 IC50) is reported as 35 nM.
Compound `C[C@@H]1C(=O)N(C)CCN1CCOc1ccc(C#Cc2ccc(-c3cn(C)c(=O)c4[nH]ccc34)cc2)cc1` [SLU-2226, (R)-4-{4-[(4-(2-(2,4-dimethyl-3-oxopiperazin-1-yl)ethoxy)phenyl)ethynyl]phenyl}-6-methyl-1H-pyrrolo[2,3-c]pyridin-7(6H)-one] has an IC50 (read-out: DUX4* MT FSHD2: IC50) of 47 nM and an IC50 (read-out: DUX4* MT FSHD2 IC50) of 47 nM.
`C[C@@H]1C(=O)N(C)CCN1CCOc1ccc(CCc2ccc(-c3cn(C)c(=O)c4[nH]ccc34)cc2)cc1` [SLU-2227, (R)-4-{4-[4-(2-(2,4-dimethyl-3-oxopiperazin-1-yl)ethoxy)phenethyl]phenyl}-6-methyl-1H-pyrrolo[2,3-c]pyridin-7(6H)-one] gave an IC50 (read-out: DUX4* MT FSHD2: IC50) of 69 nM and an IC50 (read-out: DUX4* MT FSHD2 IC50) of 69 nM.
In the case of `Cn1cc(-c2ccc3cc(-c4ccc(OCCO)nc4)ccc3n2)c2cc[nH]c2c1=O` [SLU-2232, 4-{6-[6-(2-hydroxyethoxy)pyridin-3-yl]quinolin-2-yl}-6-methyl-1H-pyrrolo[2,3-c]pyridin-7(6H)-one], the IC50 (read-out: DUX4* MT FSHD2: IC50) is reported as 97 nM and the IC50 (read-out: DUX4* MT FSHD2 IC50) is reported as 97 nM.
`C[C@@H]1CCC[C@H](C)N1CCOc1ccc(-c2ccc3cc(-c4cn(C)c(=O)c5[nH]ccc45)ccc3n2)cc1` [SLU-2233, 4-{2-[4-(2-((2R,6S)-2,6-dimethylpiperidin-1-yl)ethoxy)phenyl]quinolin-6-yl}-6-methyl-1H-pyrrolo[2,3-c]pyridin-7(6H)-one] gave an IC50 (read-out: DUX4* MT FSHD2: IC50) of 290 nM and an IC50 (read-out: DUX4* MT FSHD2 IC50) of 290 nM.
`Cn1cc(-c2ccc3nc(-c4ccc(OCCN5CCOCC5)cc4)ccc3c2)c2cc[nH]c2c1=O` [SLU-2234, 6-methyl-4-{2-[4-(2-morpholinoethoxy)phenyl]quinolin-6-yl}-1,6-dihydro-7H-pyrrolo[2,3-c]pyridin-7-one] was tested, and the IC50 (read-out: DUX4* MT FSHD2: IC50) was 69 nM and the IC50 (read-out: DUX4* MT FSHD2 IC50) was 69 nM.
For `C[C@@H]1C(=O)N(C)CCN1CCOc1ccc(-c2ccc3nc(-c4cn(C)c(=O)c5[nH]ccc45)ccc3c2)cn1` [SLU-2235, (R)-4-{6-[6-(2-(2,4-dimethyl-3-oxopiperazin-1-yl)ethoxy)pyridin-3-yl]quinolin-2-yl}-6-methyl-1H-pyrrolo[2,3-c]pyridin-7(6H)-one], the IC50 (read-out: DUX4* MT FSHD2: IC50) was 12 nM and the IC50 (read-out: DUX4* MT FSHD2 IC50) was 12 nM.
For `C[C@H]1C(=O)N(C)CCN1CCOc1ccc(-c2ccc3cc(-c4cn(C)c(=O)c5[nH]ccc45)ccc3n2)cc1` [SLU-2236, (S)-4-{2-[4-(2-(2,4-dimethyl-3-oxopiperazin-1-yl)ethoxy)phenyl]quinolin-6-yl}-6-methyl-1H-pyrrolo[2,3-c]pyridin-7(6H)-one], the IC50 (read-out: DUX4* MT FSHD2: IC50) was 13 nM and the IC50 (read-out: DUX4* MT FSHD2 IC50) was 13 nM.
`C[C@@H]1C(=O)N(C)CCN1CCOc1ccc(-c2ccc3cc(-c4cn(C)c(=O)c5[nH]ccc45)ccc3n2)cn1` [SLU-2240, (R)-4-{2-[6-(2-(2,4-dimethyl-3-oxopiperazin-1-yl)ethoxy)pyridin-3-yl]quinolin-6-yl}-6-methyl-1,6-dihydro-7H-pyrrolo[2,3-c]pyridin-7-one] was tested, and the IC50 (read-out: DUX4* MT FSHD2: IC50) was 35 nM and the IC50 (read-out: DUX4* MT FSHD2 IC50) was 35 nM.
`CN1CCN(CCOc2ccc(-c3ccc4cc(-c5cn(C)c(=O)c6[nH]ccc56)ccc4n3)cc2)C(C)(C)C1=O` [SLU-2241, 6-methyl-4-{2-[4-(2-(2,2,4-trimethyl-3-oxopiperazin-1-yl)ethoxy)phenyl]quinolin-6-yl}-1H-pyrrolo[2,3-c]pyridin-7(6H)-one] was tested, and the IC50 (read-out: DUX4* MT FSHD2: IC50) was 110 nM and the IC50 (read-out: DUX4* MT FSHD2 IC50) was 110 nM.
Work on `Cn1cc(-c2ccc3nc(-c4ccc(OCCN5CCNC(=O)C5)cc4)ccc3c2)c2cc[nH]c2c1=O` [SLU-2242, 6-methyl-4-{2-[4-(2-(3-oxopiperazin-1-yl)ethoxy)phenyl]quinolin-6-yl}-1H-pyrrolo[2,3-c]pyridin-7(6H)-one] yielded an IC50 (read-out: DUX4* MT FSHD2: IC50) of 93 nM and an IC50 (read-out: DUX4* MT FSHD2 IC50) of 93 nM.
Work on `CCN1CCN(CCOc2ccc(-c3ccc4cc(-c5cn(C)c(=O)c6[nH]ccc56)ccc4n3)cc2)CC1=O` [SLU-2243, 4-{2-[4-(2-(4-ethyl-3-oxopiperazin-1-yl)ethoxy)phenyl]quinolin-6-yl}-6-methyl-1H-pyrrolo[2,3-c]pyridin-7(6H)-one] yielded an IC50 (read-out: DUX4* MT FSHD2: IC50) of 110 nM and an IC50 (read-out: DUX4* MT FSHD2 IC50) of 110 nM.
Compound `CN1CCN(CCOc2ccc(-c3ccc4cc(-c5cn(C)c(=O)c6[nH]ccc56)ccc4n3)cc2)CC1=O` [SLU-2244, 6-methyl-4-{2-[4-(2-(4-methyl-3-oxopiperazin-1-yl)ethoxy)phenyl]quinolin-6-yl}-1H-pyrrolo[2,3-c]pyridin-7(6H)-one] has an IC50 (read-out: DUX4* MT FSHD2: IC50) of 28 nM and an IC50 (read-out: DUX4* MT FSHD2 IC50) of 28 nM.
`CN1CCN(CCOc2ccc(-c3ccc4cc(-c5cn(C)c(=O)c6[nH]ccc56)ccc4n3)cc2)CCC1=O` [SLU-2277, 6-methyl-4-{2-[4-(2-(4-methyl-5-oxo-1,4-diazepan-1-yl)ethoxy)phenyl]quinolin-6-yl}-1,6-dihydro-7H-pyrrolo[2,3-c]pyridin-7-one] was tested, and the IC50 (read-out: DUX4* MT FSHD2: IC50) was 20 nM and the IC50 (read-out: DUX4* MT FSHD2 IC50) was 20 nM.
For `Cn1cc(-c2ccc3cc(-c4ccc(OCCN5CCOCC5)cc4)ccc3n2)c2cc[nH]c2c1=O` [SLU-2278, 6-methyl-4-{6-[4-(2-morpholinoethoxy)phenyl]quinolin-2-yl}-1,6-dihydro-7H-pyrrolo[2,3-c]pyridin-7-one], the IC50 (read-out: DUX4* MT FSHD2: IC50) was 120 nM and the IC50 (read-out: DUX4* MT FSHD2 IC50) was 120 nM.
